The record followed here is US6599901B1, “Pyridone substituted benzothiazole derivatives” (Hoffman-La Roche Inc., priority 2001, dated 2003).

Assay [1] deals with T1, human adenosine A2A receptor (Homo sapiens, UniProt P29274).
T1 construct: expressed in transfected cells; host or cells: CHO cells, semliki forest virus expression system
The assay can be described thus: [3H]-SCH-58261 binding assay, human adenosine A2A receptor (CHO cell membranes, SPA). The conditions noted are these: recombinant human A2A receptor in CHO membranes; [3H]-SCH-58261 1 nM; Ki by Cheng-Prussoff; read-out: hA2 (pKi) (converted). As for the experimental part:
(§1) The human adenosine A2A receptor was recombinantly expressed in chinese hamster ovary (CHO) cells using the semliki forest virus expression system. Cells were harvested, washed twice by centrifugation, homogenised and again washed by centrifugation. The final washed membrane pellet was suspended in a Tris (50 mM) buffer containing 120 mM NaCl, 5 mM KCl, 2 mM CaCl2 and 10 mM MgCl2 (pH 7.4) (buffer A). The [^3H]-SCH-58261 (Dionisotti et al., 1997, Br J Pharmacol 121, 353; 1 nM) binding assay was carried out in 96-well plates in the presence of 2.5 μM of membrane protein, 0.5 mg of Ysi-poly-1-lysine SPA beads and 0.1 U adenosine deaminase in a final volume of 200 μl of buffer A. Non-specific binding was defined using xanthine amine congener (XAC; 2 μM). Compounds were tested at 10 concentrations from 10 μM-0.3 nM. All assays were conducted in duplicate and repeated at least two times. Assay plates were incubated for 1 hour at room temperature before centrifugation and then bound ligand determined using a Packard Topcount scintillation counter. IC50 values were calculated using a non-linear curve fitting program and Ki values calculated using the Cheng-Prussoff equation.

For assay [2], the target named is T2, human adenosine A1 receptor (Homo sapiens, UniProt P30542).
T2 construct: expressed in transfected cells; host or cells: CHO cells, semliki forest virus expression system
T2 sequence (P30542 1-326): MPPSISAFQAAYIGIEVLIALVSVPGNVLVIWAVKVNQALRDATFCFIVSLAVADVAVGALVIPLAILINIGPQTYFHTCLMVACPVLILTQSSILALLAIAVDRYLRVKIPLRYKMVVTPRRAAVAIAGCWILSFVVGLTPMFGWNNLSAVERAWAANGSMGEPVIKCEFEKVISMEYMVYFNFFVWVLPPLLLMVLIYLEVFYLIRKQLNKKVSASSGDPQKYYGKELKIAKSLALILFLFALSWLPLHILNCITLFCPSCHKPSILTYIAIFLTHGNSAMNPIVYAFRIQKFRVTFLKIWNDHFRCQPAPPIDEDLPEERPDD
The assay can be described thus: [3H]-DPCPX binding assay, human adenosine A1 receptor (CHO cell membranes, SPA). The conditions noted are these: recombinant human A1 receptor in CHO membranes; [3H]-DPCPX 0.6 nM; Ki by Cheng-Prussoff; read-out: hA1 (pKi) (converted). As for the experimental part: as §1, with “adenosine A1” for “adenosine A2A”, “The [^3H]-DPCPX (([propyl-^3H]8-cyclopentyl-1,3-dipropyxanthine); 0.6” for “The [^3H]-SCH-58261 (Dionisotti et al., 1997, Br J Pharmacol 121, 353; 1”, “2.5 μg” for “2.5 μM”

T1 sequence (P29274 whole entry): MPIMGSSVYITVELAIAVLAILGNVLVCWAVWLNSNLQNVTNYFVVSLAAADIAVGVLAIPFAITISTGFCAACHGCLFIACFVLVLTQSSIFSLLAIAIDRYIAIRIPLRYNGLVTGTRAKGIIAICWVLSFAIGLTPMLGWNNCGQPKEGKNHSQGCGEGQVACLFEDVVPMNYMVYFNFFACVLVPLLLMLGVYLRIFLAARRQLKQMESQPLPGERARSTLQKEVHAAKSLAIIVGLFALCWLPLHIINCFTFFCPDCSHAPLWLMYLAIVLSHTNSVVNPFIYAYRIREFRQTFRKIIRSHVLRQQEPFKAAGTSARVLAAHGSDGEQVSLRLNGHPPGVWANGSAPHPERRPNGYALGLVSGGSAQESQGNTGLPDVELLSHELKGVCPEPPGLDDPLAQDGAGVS

Turning to `COc1ccc(N2CCOCC2)c2sc(NC(=O)c3ccn(Cc4ccccc4)c(=O)c3)nc12` [Example 1, 1-Benzyl-2-oxo-1,2-dihydro-pyridine-4-carboxylic Acid (4-Methoxy-7-morpholin-4-yl-benzothiazol-2-yl)-amide], the Ki is 2.14 nM in assay [1] and 1260 nM in assay [2].

Take `CCOC(=O)Cn1ccc(C(=O)Nc2nc3c(OC)ccc(N4CCOCC4)c3s2)cc1=O` [Example 2, [4-(4-Methoxy-7-morpholin-4-yl-benzothiazol-2-ylcarbamoyl)-2-oxo-2H-pyridin-1-yl]-acetic Acid Ethyl Ester]: in assay [1], the Ki was 6.46 nM.

`CCC(=O)Cn1ccc(C(=O)Nc2nc3c(OC)ccc(N4CCOCC4)c3s2)cc1=O` [Example 3, 2-oxo-1-(2-oxo-Butyl)-1,2-dihydro-pyridine-4-carboxylic Acid (4-Methoxy-7-morpholin-4-yl-benzothiazol-2-yl)-amide]: in assay [1], the Ki is 5.75 nM.

As to `COc1ccc(N2CCOCC2)c2sc(NC(=O)c3ccn(Cc4ccccn4)c(=O)c3)nc12` [Example 4, 2-oxo-1-Pyridin-2-ylmethyl-1,2-dihydro-pyridine-4-carboxylic Acid (4-Methoxy-7-morpholin-4-yl-benzothiazol-2-yl)-amide], the Ki in assay [1] is 7.94 nM.

For `COc1ccc(N2CCOCC2)c2sc(NC(=O)c3ccn(CC(=O)N4CCOCC4)c(=O)c3)nc12` [Example 5, 1-(2-Morpholin-4-yl-2-oxo-ethyl)-2-oxo-1,2-dihydro-pyridine-4-carboxylic Acid (4-Methoxy-7-morpholin-4-yl-benzothiazol-2-yl)-amide], the Ki in assay [1] is 58.9 nM.

`COc1ccc(N2CCOCC2)c2sc(NC(=O)c3ccn(CC(=O)N(C)C)c(=O)c3)nc12` [Example 6, 1-Dimethylcarbamoylmethyl-2-oxo-1,2-dihydro-pyridine-4-carboxylic Acid (4-Methoxy-7-morpholin-4-yl-benzothiazol-2-yl)-amide]: the Ki in assay [1] was 50.1 nM.
